We go through 1 compound from US20060135435A1, “Agent that retards transformation of hormone-dependent cancer to non-hormone-dependent cancer” (priority 1998, published 2006).

Usually melting point stands for the temperature, or range, at which the solid turns liquid. `C(=C\c1nc(COc2ccc(CCCn3cncn3)cc2)co1)/c1ccccc1` [Reference Example 3, 1-[3-[4-[2-[(E)-2-phenylethenyl]-4-oxazolylmethoxy]phenyl]propyl]-1,2,4-triazole] displayed a melting point of 108 to 109 °C.
